Experimental data taken from ChEMBL document CHEMBL2069202, “Antiviral activity and synthesis of quaternized promazine derivatives against HSV-1” (Bioorg Med Chem Lett, 2012).
Calls of active or inactive are those of the source. The rule behind the calls is not given here.

Experiments:
Human alphaherpesvirus 1 [1] = assay: Antiviral activity against HSV-1 infected in african green monkey Vero cells assessed as inhibition of viral replication at 50 uM treated for 24 hrs measured 24 hrs after drug washout by GFP reduction assay; assay type: functional, organism-based
Human alphaherpesvirus 1 [2] = assay: Antiviral activity against HSV-1 infected in african green monkey Vero cells assessed as inhibition of viral ICP4 gene expression after 48 hrs by RT-PCR analysis; assay type: functional, organism-based
Vero = assay: Cytotoxicity against african green monkey Vero cells up to 200 uM; assay type: cell-based; details: chlorocebus sabaeus
Human alphaherpesvirus 1 [3] = assay: Antiviral activity against HSV-1 infected in african green monkey Vero cells assessed as inhibition of viral replication at 50 uM treated 2 hrs after post infection by GFP reduction assay; assay type: functional, organism-based
Human alphaherpesvirus 1 [4] = assay: Antiviral activity against HSV-1 infected in african green monkey Vero cells assessed as inhibition of viral replication at 48 uM after 48 hrs by plaque reduction assay; assay type: functional, organism-based
Human alphaherpesvirus 1 [5] = assay: Antiviral activity against HSV-1 infected in african green monkey Vero cells assessed as inhibition of viral replication at 48 uM after 48 hrs by GFP reduction assay; assay type: functional, organism-based
Human alphaherpesvirus 1 [6] = assay: Antiviral activity against HSV-1 infected in african green monkey Vero cells assessed as inhibition of viral replication at 50 uM after 48 hrs by GFP reduction assay relative to acyclovir; assay type: functional, organism-based
Human alphaherpesvirus 1 [7] = assay: Antiviral activity against HSV-1 infected in african green monkey Vero cells assessed as inhibition of GFP gene expression after 48 hrs by RT-PCR analysis; assay type: functional, organism-based
Human alphaherpesvirus 1 [8] = assay: Antiviral activity against HSV-1 infected in african green monkey Vero cells assessed as inhibition of viral replication after 48 hrs by GFP reduction assay; assay type: functional, organism-based
Human alphaherpesvirus 1 [9] = assay: Antiviral activity against HSV-1 infected in african green monkey Vero cells assessed as inhibition of viral replication at 50 uM after 48 hrs by GFP reduction assay; assay type: functional, organism-based
Human alphaherpesvirus 1 [10] = assay: Antiviral activity against HSV-1 infected in african green monkey Vero cells assessed as inhibition of viral replication at 200 uM after 48 hrs by GFP reduction assay; assay type: functional, organism-based

Which results are given for C[N+](C)(CCCN1c2ccccc2Sc2ccc(C(F)(F)F)cc21)Cc1ccc(Cl)cc1.[Cl-]?
inhibition (Human alphaherpesvirus 1 [1]): inactive; inhibition (Human alphaherpesvirus 1 [2]): Active; Activity (Vero): Non-toxic; inhibition (Human alphaherpesvirus 1 [3]): inactive; inhibition (Human alphaherpesvirus 1 [4]): Active; inhibition (Human alphaherpesvirus 1 [5]): Active; inhibition (Human alphaherpesvirus 1 [6]): Active; inhibition (Human alphaherpesvirus 1 [7]): Active

O[C@]12C=C(c3nccc4c3[nH]c3ccccc34)[C@@H]3CCN(CCCC/C=C\CC1)C[C@@]31C[C@@H]3/C=C\CCCCN3[C@H]12 was tested. Which inhibition (Human alphaherpesvirus 1 [7]) did it give?
The inhibition was “inactive”.

With C#CC[N+](C)(C)CCCN1c2ccccc2Sc2ccc(C(F)(F)F)cc21 as the compound, how does the inhibition (Human alphaherpesvirus 1 [8]) read?
Its inhibition is “inactive”.

Which inhibition (Human alphaherpesvirus 1 [1]) does the source give for Nc1nc2c(ncn2COCCO)c(=O)[nH]1 here?
Its inhibition is “Active”.

And the inhibition (Human alphaherpesvirus 1 [2])?
Its inhibition is “Active”.

What about the inhibition (Human alphaherpesvirus 1 [3]) of the same compound?
The inhibition was “Active”.

And the inhibition (Human alphaherpesvirus 1 [4])?
The inhibition was “Active”.

What about the inhibition (Human alphaherpesvirus 1 [9]) of the same compound?
Its inhibition is “Active”.

And the inhibition (Human alphaherpesvirus 1 [5])?
Its inhibition is “Active”.

What about the inhibition (Human alphaherpesvirus 1 [7]) of the same compound?
Its inhibition is “Active”.

C[N+](C)(CC#N)CCCN1c2ccccc2Sc2ccc(C(F)(F)F)cc21 was tested. Which inhibition (Human alphaherpesvirus 1 [8]) did it give?
The inhibition was “inactive”.

With C[N+](C)(CCCN1c2ccccc2Sc2ccc(C(F)(F)F)cc21)Cc1cccc(Cl)c1 as the compound, how does the inhibition (Human alphaherpesvirus 1 [9]) read?
Its inhibition is “inactive”.

What about the inhibition (Human alphaherpesvirus 1 [10]) of the same compound?
Its inhibition is “Active”.

C[N+](C)(CCCN1c2ccccc2Sc2ccc(C(F)(F)F)cc21)Cc1ccccc1 was tested. Which inhibition (Human alphaherpesvirus 1 [8]) did it give?
The inhibition was “inactive”.

With CCCC[N+](C)(C)CCCN1c2ccccc2Sc2ccc(C(F)(F)F)cc21 as the compound, how does the inhibition (Human alphaherpesvirus 1 [10]) read?
Its inhibition is “Active”.

For C[N+](C)(CCCN1c2ccccc2Sc2ccc(C(F)(F)F)cc21)Cc1ccccc1Cl, which inhibition (Human alphaherpesvirus 1 [9]) is on record?
Its inhibition is “inactive”.

What about the inhibition (Human alphaherpesvirus 1 [10]) of the same compound?
The inhibition was “Active”.

For C=CC[N+](C)(C)CCCN1c2ccccc2Sc2ccc(C(F)(F)F)cc21, which inhibition (Human alphaherpesvirus 1 [8]) is on record?
Its inhibition is “inactive”.

Which inhibition (Human alphaherpesvirus 1 [8]) does the source give for C#CC[N+](C)(C)CCCN1c2ccccc2Sc2ccccc21 here?
Its inhibition is “inactive”.
